According to patent US10408843B2, “Compositions and methods for detecting S-nitrosylation and S-sulfinylation” (The Regents of the University of Michigan, priority 2013, dated 2019):
One block for each compound: values may come before it.

Tests used:
[1] = tested on: sulfenic acids in 293T cell lysates; assay: Dimedone-alkyne detection of sulfenic acids in lysates; assay type: biochemical, human
Description: FIG. 12. Sulfenic acids are eliminated by ascorbate reduction or denaturing buffers. Lysates were labeled for 1 hour with 1 mM dimedone-alkyne, and precipitated with chloroform:methanol. The protein fraction was sonicated in PBS and diluted to 1 mg/mL, and incubated with 20 μM TAMRA-azide, 1 mM CuSO4, and 100 μM Tris[(1-benzyl-1H-1,2,3-triazol-4-yl)methyl]amine (TBTA) for 1 hour, boiled in reducing loading buffer, and separated by SDS-PAGE. After transfer and Cy5-streptavidin binding, the gel was visualized using a GE Typhoon fluorescence scanner. […] Pre-treatment with sodium ascorbate (20 mM) for 30 minutes efficiently reduces sulfenic acids. […] Furthermore, ascorbate reduces sulfenic acids, and confirms non-selective enrichment of an additional cysteine oxidative modification by the biotin-switch method.

Recombinant human GAPDH = target: T1, Recombinant human GAPDH (Homo sapiens, UniProt P04406); assay: Labeling of recombinant GAPDH (in-gel fluorescence, LC-MS); assay type: biochemical
T1 construct: 6His; made in house; host or cells: E. coli BL21
T1 sequence (P04406 whole entry): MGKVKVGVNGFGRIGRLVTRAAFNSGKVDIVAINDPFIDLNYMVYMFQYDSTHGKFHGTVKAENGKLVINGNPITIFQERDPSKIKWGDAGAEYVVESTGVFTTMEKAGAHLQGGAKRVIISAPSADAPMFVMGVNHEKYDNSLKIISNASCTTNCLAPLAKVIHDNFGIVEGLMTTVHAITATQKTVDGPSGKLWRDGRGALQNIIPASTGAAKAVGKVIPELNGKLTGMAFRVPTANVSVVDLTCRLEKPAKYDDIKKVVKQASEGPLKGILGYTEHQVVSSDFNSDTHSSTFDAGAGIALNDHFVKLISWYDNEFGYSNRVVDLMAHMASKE
Description: FIG. 14. Profiling fluorescein-SO2H reactivity and selectivity on S-nitrosylated GAPDH. Recombinant human GAPDH was resuspended in 6 M urea/PBS, treated with 50 mM iodoacetamide for 30 minutes, and mixed with dimedone, ascorbate, peroxide or NO donor (5 minutes). Fluorescein-SO2H (500 μM) was then added to the GAPDH sample for 45 minutes. S-nitrosylated human GAPDH labeling increases upon incubation with the NO donor MAHMA-NONOate, and decreases following treatment with ascorbate. […] Fluorescein-SO2H labeling is unaffected by pre-incubation with peroxide or dimedone.
FIG. 15. Biotin-SO2H reacts with human GAPDH and forms a thiosulfonate. Recombinant human GADPH was labeled with biotin-SO2H for site-specific analysis of S-nitrosylation by high-resolution mass spectrometry.
Given the efficient and selective conjugation of sulfinic acids and nitrosothiols, recombinant human GAPDH were next purified for targeted analysis of S-sulfinylation with biotin-SO2H. […] Biotin-SO2H-labeled GAPDH protein was digested with trypsin and analyzed by high-resolution mass spectrometry, identifying a biotin-thiosulfonate modified peptide encompassing the GAPDH catalytic cysteine (FIG. 15). […] These studies confirm direct detection of native of S-sulfinylation by sulfinic acid probes for mass spectrometry analysis.
Purified human GAPDH was diluted to 0.2 mg/mL in phosphate buffered saline (pH 7.3), and treated with 20 mM iodoacetamide for 30 minutes. Next, the sample was treated with 100 μM biotin-SO2H. Purified human DJ-1 was diluted to 0.2 mg/mL in PBS, and incubated with 20 mM iodoacetamide to alkylated free thiols. Next, the sample was treated with 2 mM hydrogen peroxide for 20 minutes to promote Cys106 sulfinic acid formation. […] Eluted peptides were analyzed using a Waters Synapt G2-S HDMS time-of-flight mass spectrometer in positive mode. […] MS data was searched using Waters Protein Lynx Global Server v3.0 using the exact mass calculated for the cysteine thiosulfonate modification.

[2] = tested on: S-nitrosylated proteins in mammalian cell lysates; assay: Gel-based labeling of endogenous S-nitrosylated proteins in cell lysates; assay type: biochemical, human; conditions: lysates denatured, alkylated with iodoacetamide; streptavidin detection
Description: FIG. 8. Dose-dependent labeling of S-nitrosylated proteins by biotin-SO2H. 293T and PANC1 cells were lysed in 6 M urea/PBS and alkylated with 50 mM iodoacetamide for 30 minutes, followed by incubation with increasing concentrations of biotin-SO2H for 45 minutes.
Next, the reactivity of sulfinic acids with native S-nitrosylated proteins was examined. Biotin and fluorescein N-hydroxysuccinimide (NHS) esters were directly coupled to the biological sulfinic acid metabolite hypotaurine (biotin-SO2H) or the sulfonic acid metabolite taurine (biotin-SO3H). Each probe was incubated with mammalian cell lysates pre-alkylated with excess iodoacetamide (FIG. 1b) in 6 M urea/phosphate buffered saline (PBS), and separated by non-reducing SDS-PAGE for transfer to nitrocellulose and streptavidin detection. […]
Cells and lysates were protected from light and kept on ice throughout the labeling protocol, except when noted. […] Lysate protein concentrations were quantified using the Bio-Rad DC assay, and diluted 3 mg/mL in 6 M urea/PBS. […] For in-gel fluorescence analysis, samples were loaded without boiling using non-reducing SDS-PAGE loading buffer for SDS-PAGE separation. […] In-gel fluorescence and streptavidin blots were analyzed using a GE typhoon scanner at appropriate wavelengths (488/526 for fluorescein and 633/670 for Cy5-Streptavidin).

[3] = HPLC cross-reactivity assay of phenylsulfinic acid; assay type: physicochemical
Description: FIG. 3. […] A 10 mM solution of phenylsulfinic acid was allowed to react with a 20 mM solution of iodoacetamide in potassium phosphate buffer pH 7.4 for 5 hours. After 5 hours, the reaction mixture was injected on an HPLC and separated using gradient elution (5% ACN to 95% ACN over 15 minutes). Absence of additional peaks (over 202-798 nm, monitored on a PDA detector) was interpreted as no reaction between the sulfinic acid and iodoacetamide.
A 2 mM solution of phenylsulfinic acid was allowed to stand with 20 mM solutions of N-acetyl-cysteine-methyl ester, benzaldehyde, cystine dimethyl ester, and 5,5′-dithiobis-(2-nitrobenzoic acid) in phosphate buffer pH 7.4 for 5 hours. The reaction mixtures were injected on an HPLC and analyzed using gradient elution (5% ACN to 95% ACN over 15 minutes). Peaks beyond minute 8.6 in (a) are contaminants present in the commercial cysteine sample (Sigma-Aldrich).
Cross-reactivity was determined by allowing components to react for 4 hours. HPLC analysis (every 30 minutes) was used to monitor reactions. Reduction in peak intensity of initial components and the appearance of new peak was termed as a positive reaction. Partial reaction indicates incomplete reaction.

[4] = Rate constant determination: loss of GSNO absorbance after phenylsulfinic acid addition; assay type: physicochemical
Description: FIG. 6A-B. GSNO is consumed by increasing concentrations of sodium phenylsulfinate. (a) A 2 mM solution of S-nitrosoglutathione (GSNO, Cayman) was treated with increasing concentrations of phenylsulfinic acid, and the absorbance of GSNO was monitored over a period of 90 minutes at 340 nm using a plate reader in varying pH buffers. (b) Calculation of rate constants at differing pH values. At pH 7, the rate becomes more hyperpbolic.
Thiosulfonate formation was further characterized by measuring the loss of S-nitroso-glutathione (GSNO) absorbance after phenylsulfinic acid addition (FIG. 6). At pH 1 and 4, the reaction rate is first order and proceeds at 3×10^−5 M·sec^−1. […]
S-nitrosoglutathione (GSNO, Cayman) and sodium phenylsulfinate (Sigma-Aldrich) were used for rate-determination studies at four pH values: pH 1.0 (0.2 N HCl/KCl buffer), pH 4.0 (0.1 M Sodium acetate/Acetic Acid buffer), pH 7.0 (0.1 M potassium phosphate buffer) and pH 10.0 (0.1 M Sodium bicarbonate/Sodium hydroxide buffer). The purity of S-nitrosoglutathione was calculated as 94±1.3% by absorbance at 334 nm using the molar extinction coefficient of 900 M^−1 cm^−1. Assays were performed using a plate reader (Tecan Infinite F500) monitoring absorbance of 2 mM GSNO at 340 nm over a course of 90 minutes in the presence of varying concentrations of sodium phenylsulfinate. […]

[5] = HPLC assay of thiosulfonate reduction by TCEP or ascorbate; assay type: physicochemical
Description: FIG. 5A-B. The thiosulfonate product is reduced by TCEP, but not ascorbate. A 0.5 mM solution of the thiosulfonate product was incubated with 2.5 mM TCEP or 2.5 mM sodium ascorbate in phosphate buffer (pH 7.4) in the dark at room temperature. After 5 minutes and 60 minutes, an aliquot injected for HPLC analysis and separated using gradient elution (5% ACN to 95% ACN over 15 minutes).

Compound: C#CCCCC1CC(=O)CC(=O)C1 [Dimedone alkyne, 5-(pent-4-yn-1-yl)cyclohexane-1,3-dione]
- detection of sulfenic acids ([1]; 1 mM, 1 hour, PBS): most efficient in PBS
- dimedone labeling ([1]; lysate denatured in 6 M urea/PBS): nearly completely eliminated

Compound: O=C(NCCS(=O)O)c1ccc(-c2c3ccc(=O)cc-3oc3cc(O)ccc23)c(C(=O)O)c1 [Fluorescein-SO2H, 2-(6-hydroxy-3-oxo-3H-xanthen-9-yl)-5-((2-sulfinoethyl)carbamoyl)benzoic Acid]
- GAPDH labeling after pre-incubation with peroxide or dimedone (Recombinant human GAPDH; 500 μM probe, 45 minutes): unaffected

Compound: O=C(CCCC[C@@H]1SC[C@@H]2NC(=O)N[C@@H]21)NCCS(=O)(=O)O [biotin-SO3H, 2-(5-((3aS,4S,6aR)-2-oxohexahydro-1H-thieno[3,4-d]imidazol-4-yl)pentanamido)ethanesulfonic Acid]
- labeling of mammalian proteins [2]: unreactive

Now from value to compound, other results behind:

- labeling of GAPDH (Recombinant human GAPDH; 6 M urea/PBS, 50 mM iodoacetamide, probe 45 minutes): does not label GAPDH
Compound: O=C(NCCS(=O)(=O)O)c1ccc(-c2c3ccc(=O)cc-3oc3cc(O)ccc23)c(C(=O)O)c1 [fluorescein-SO3H, 2-(6-hydroxy-3-oxo-3H-xanthen-9-yl)-5-((2-sulfoethyl)carbamoyl)benzoic Acid]

- reaction with thiols, disulfides, or aldehydes ([3]; 2 mM with 20 mM N-acetyl-cysteine-methyl ester, benzaldehyde, cystine dimethyl ester, DTNB, phosphate buffer pH 7.4, 5 hours): do not react
- reaction with iodoacetamide ([3]; 10 mM with 20 mM iodoacetamide, potassium phosphate buffer pH 7.4, 5 hours): no reaction
Compound: O=S(O)c1ccccc1 [phenylsulfinic acid]
- reaction with GSNO ([4]; basic conditions): no reaction occurs
- reaction rate of thiosulfonate formation with GSNO ([4]; pH 1 and 4, first order): 3e-05 M/s

- cleavage of thiosulfonate bond by TCEP ([5]; 0.5 mM with 2.5 mM TCEP, phosphate buffer pH 7.4, room temperature): immediately cleaves
- cleavage of thiosulfonate bond by ascorbate ([5]; 0.5 mM with 2.5 mM sodium ascorbate, pH 7.4, 60 minutes): does not
Compound: COC(=O)[C@H](CSS(=O)(=O)c1ccccc1)NC(C)=O [thiosulfonate product, (R)-methyl 2-acetamido-3-((phenylsulfonyl)thio)propanoate]
